From paper PMC11995724, “Antibiotic target discovery by integrated phenotypic and activity-based profiling of electrophilic fragments” (Cell chemical biology, 2025) come the findings set out here.

The viability is a read-out of living cells in per cent, often relative to untreated cells.

Structures can show the parent of a compound that is named as a salt.

This data set in a line: in vitro. The following applies: human, hek293t cells.
For `CC(Cl)C(=O)Nc1cccc(C#N)c1` (centres unmarked) [5-B10, 2-chloro-N-(3-cyanophenyl)propanamide], the viability at 48 h, 25 µM was 77.3%.

Consider `CCc1nocc1CN(C)C(=O)CCl` [5-B11, 2-chloro-N-[(3-ethyl-1,2-oxazol-4-yl)methyl]-N-methylacetamide], for which the viability at 48 h, 25 µM came to 1.49%.

Regarding `COC(=O)c1ccccc1NC(=O)CCl` [5-B12, methyl 2-(2-chloroacetamido)benzoate], the viability at 48 h, 25 µM worked out at 77.7%.

On to `Cc1cc(Cl)ccc1CN1CCN(C(=O)C(C)Cl)CC1` (centres unmarked) [5-B13, 2-chloro-1-{4-[(4-chloro-2-methylphenyl)methyl]piperazin-1-yl}propan-1-one], for which the viability at 48 h, 25 µM was 94.8%.

In the case of `O=C(CCl)Nc1ccccn1` [5-B14, 2-chloro-N-(pyridin-2-yl)acetamide hydrochloride], the viability at 48 h, 25 µM was 73.1%.

With `O=C(CCl)N(Cc1ccoc1)C1CCCCC1` [5-B15, 2-chloro-N-cyclohexyl-N-[(furan-3-yl)methyl]acetamide], the viability at 48 h, 25 µM was 0.638%.

Regarding `O=C(CCl)Nc1c(Cl)cc(Cl)cc1Cl` [5-B16, 2-chloro-N-(2,4,6-trichlorophenyl)acetamide], the viability at 48 h, 25 µM worked out at 123%.

On to `CC(Cl)C(=O)N(Cc1nnc(-c2ccccc2Cl)o1)C1CC1` (centres unmarked) [5-B17, 2-chloro-N-{[5-(2-chlorophenyl)-1,3,4-oxadiazol-2-yl]methyl}-N-cyclopropylpropanamide], for which the viability at 48 h, 25 µM is 134%.

On to `CC(Cl)C(=O)Nc1cccc(CSc2ccccn2)c1` (centres unmarked) [5-B18, 2-chloro-N-{3-[(pyridin-2-ylsulfanyl)methyl]phenyl}propanamide], for which the viability at 48 h, 25 µM turned out to be 119%.

Take `CC(Cl)C(=O)NC1CC(C)N(c2ccccc2)C1=O` (centres unmarked) [5-B19, 2-chloro-N-(5-methyl-2-oxo-1-phenylpyrrolidin-3-yl)propanamide]: the viability at 48 h, 25 µM came out at 112%.

Turning to `CC(Cl)C(=O)Nc1sc2c(c1C#N)CCCCC2` (centres unmarked) [5-B20, 2-chloro-N-{3-cyano-4H,5H,6H,7H,8H-cyclohepta[b]thiophen-2-yl}propanamide], the viability at 48 h, 25 µM was found to be 60%.

In the case of `CC1CN(Cc2ccccc2)CC(C)N(C(=O)C(C)Cl)C1` (centres unmarked) [5-B21, 1-(4-benzyl-2,6-dimethyl-1,4-diazepan-1-yl)-2-chloropropan-1-one], the viability at 48 h, 25 µM stood at 122%.

As to `CC(Cl)C(=O)N(C)Cc1ncc(C2CC2)o1` (centres unmarked) [5-B22, 2-chloro-N-[(5-cyclopropyl-1,3-oxazol-2-yl)methyl]-N-methylpropanamide], the viability at 48 h, 25 µM amounted to 66.9%.

On to `NC(=O)CCN(C(=O)CCl)c1ccc(F)cc1` [5-C03, 3-[2-chloro-N-(4-fluorophenyl)acetamido]propanamide], for which the viability at 48 h, 25 µM came to 1.62%.

Regarding `Cn1nccc1CN1C[C@@H](F)C[C@H]1CNC(=O)CCl` [5-C04, 2-chloro-N-{[(2S,4S)-4-fluoro-1-[(1-methyl-1H-pyrazol-5-yl)methyl]pyrrolidin-2-yl]methyl}acetamide], the viability at 48 h, 25 µM came to 117%.

For `COc1cc(NC(=O)CCl)c(OC)cc1Cl` [5-C05, 2-chloro-N-(4-chloro-2,5-dimethoxyphenyl)acetamide], the viability at 48 h, 25 µM amounted to 0.731%.

In the case of `Cc1cccc(NC(=O)[C@@H]2CCCN2C(=O)CCl)n1` [5-C06, (2S)-1-(2-chloroacetyl)-N-(6-methylpyridin-2-yl)pyrrolidine-2-carboxamide], the viability at 48 h, 25 µM came out at 0.946%.

Turning to `O=C(CCl)NCC1CCCCN1C(=O)C(F)(F)F` (centres unmarked) [5-C07, 2-chloro-N-{[1-(2,2,2-trifluoroacetyl)piperidin-2-yl]methyl}acetamide], the viability at 48 h, 25 µM was determined as 1.83%.

In the case of `CCc1nc(C2CCCN2C(=O)CCl)no1` (centres unmarked) [5-C08, 2-chloro-1-[2-(5-ethyl-1,2,4-oxadiazol-3-yl)pyrrolidin-1-yl]ethan-1-one], the viability at 48 h, 25 µM came out at 1.18%.

Turning to `O=C(CCl)NC1CCN(C(=O)C2COc3ccccc3O2)CC1` (centres unmarked) [5-C09, 2-chloro-N-[1-(2,3-dihydro-1,4-benzodioxine-2-carbonyl)piperidin-4-yl]acetamide], the viability at 48 h, 25 µM turned out to be 1.13%.

As for `CNC(=O)c1ccc(O)c(NC(=O)CCl)c1` [5-C10, 3-(2-chloroacetamido)-4-hydroxy-N-methylbenzamide], the viability at 48 h, 25 µM amounted to 114%.

Regarding `CC(C)C1C(=O)Nc2ccc(Cl)cc2N1C(=O)CCl` (centres unmarked) [5-C11, 6-chloro-4-(2-chloroacetyl)-3-(propan-2-yl)-1,2,3,4-tetrahydroquinoxalin-2-one], the viability at 48 h, 25 µM was -0.0252%.

In the case of `Cc1cc(CN(C(=O)CCl)c2csnc2C)cs1` [5-C12, 2-chloro-N-(3-methyl-1,2-thiazol-4-yl)-N-[(5-methylthiophen-3-yl)methyl]acetamide], the viability at 48 h, 25 µM was determined as 0.6%.

Consider `Cc1c(CN(CC2CC=CCC2)C(=O)CCl)cnn1C` (centres unmarked) [5-C14, 2-chloro-N-[(cyclohex-3-en-1-yl)methyl]-N-[(1,5-dimethyl-1H-pyrazol-4-yl)methyl]acetamide], for which the viability at 48 h, 25 µM was 0.469%.

Turning to `Cn1nc(C(F)(F)F)cc1CN(C(=O)CCl)C1CCCC1` [5-C16, 2-chloro-N-cyclopentyl-N-{[1-methyl-3-(trifluoromethyl)-1H-pyrazol-5-yl]methyl}acetamide], the viability at 48 h, 25 µM was 0.815%.

With `COc1ccccc1NC(=O)c1ccc(NC(=O)C(C)Cl)cc1` (centres unmarked) [5-C17, 4-(2-chloropropanamido)-N-(2-methoxyphenyl)benzamide], the viability at 48 h, 25 µM was 58%.

As to `O=C(CCl)NCC12CCCCC1C2(F)F` (centres unmarked) [5-C18, 2-chloro-N-({7,7-difluorobicyclo[4.1.0]heptan-1-yl}methyl)acetamide], the viability at 48 h, 25 µM is 8.39%.

For the compound `CC(Cl)C(=O)Nc1ccc2c(c1)CCC2` (centres unmarked) [5-C19, 2-chloro-N-(2,3-dihydro-1H-inden-5-yl)propanamide], the viability at 48 h, 25 µM was 68.8%.

Turning to `COc1cccc2c1CCC2(CO)NC(=O)CCl` (centres unmarked) [5-C20, 2-chloro-N-[1-(hydroxymethyl)-4-methoxy-2,3-dihydro-1H-inden-1-yl]acetamide], the viability at 48 h, 25 µM came out at 58.2%.

`CC(Cl)C(=O)Nc1sccc1C(N)=O` (centres unmarked) [5-C21, 2-(2-chloropropanamido)thiophene-3-carboxamide]: the viability at 48 h, 25 µM came to 85.4%.

Regarding `CN1CCN(C(=O)Cc2cccc(NC(=O)CCl)c2)CC1` [5-C22, 2-chloro-N-{3-[2-(4-methylpiperazin-1-yl)-2-oxoethyl]phenyl}acetamide], the viability at 48 h, 25 µM was 1.44%.

Turning to `O=C(CCl)N1CCN(C(=O)c2cn(C3CC3)nn2)CC1` [5-D03, 2-chloro-1-[4-(1-cyclopropyl-1H-1,2,3-triazole-4-carbonyl)piperazin-1-yl]ethan-1-one], the viability at 48 h, 25 µM stood at 2.35%.

In the case of `CCOC(=O)c1c(NC(=O)C(C)Cl)sc2c1CCC(C)C2` (centres unmarked) [5-D04, ethyl 2-(2-chloropropanamido)-6-methyl-4,5,6,7-tetrahydro-1-benzothiophene-3-carboxylate], the viability at 48 h, 25 µM turned out to be 90.9%.

For the compound `O=C(NC1CCCN(C(=O)CCl)C1)c1cc2ccccc2o1` (centres unmarked) [5-D05, N-[1-(2-chloroacetyl)piperidin-3-yl]-1-benzofuran-2-carboxamide], the viability at 48 h, 25 µM was 0.852%.

For `CC(Cl)C(=O)N(C)c1ccccc1` (centres unmarked) [5-D06, 2-chloro-N-methyl-N-phenylpropanamide], the viability at 48 h, 25 µM came to 102%.

As for `Cc1cccc(N(Cc2c(C3CC3)cnn2C)C(=O)CCl)c1` [5-D07, 2-chloro-N-[(4-cyclopropyl-1-methyl-1H-pyrazol-5-yl)methyl]-N-(3-methylphenyl)acetamide], the viability at 48 h, 25 µM is 0.857%.

Take `CC(Cl)C(=O)NC(=O)Nc1ccc2c(c1)OCCO2` (centres unmarked) [5-D08, 3-(2-chloropropanoyl)-1-(2,3-dihydro-1,4-benzodioxin-6-yl)urea]: the viability at 48 h, 25 µM amounted to 84.1%.

As to `CCN(Cc1ccc(OC)c(F)c1)C(=O)CCl` [5-D09, 2-chloro-N-ethyl-N-[(3-fluoro-4-methoxyphenyl)methyl]acetamide], the viability at 48 h, 25 µM is 1.38%.

In the case of `N#Cc1c(NC(=O)CCl)oc(-c2ccco2)c1-c1ccco1` [5-D10, 2-chloro-N-[4'-cyano-2'-(furan-2-yl)-[2,3'-bifuran]-5'-yl]acetamide], the viability at 48 h, 25 µM is 45.5%.

For the compound `CCN(C(=O)CCl)C1CCCCC1` [5-D11, 2-chloro-N-cyclohexyl-N-ethylacetamide], the viability at 48 h, 25 µM amounted to 0.918%.

In the case of `COc1ccc(CCNC(=O)C(C)Cl)cc1` (centres unmarked) [5-D12, 2-chloro-N-[2-(4-methoxyphenyl)ethyl]propanamide], the viability at 48 h, 25 µM was 104%.

`CC(Cl)C(=O)NCCN1CCn2nccc2C1` (centres unmarked) [5-D13, 2-chloro-N-(2-{4H,5H,6H,7H-pyrazolo[1,5-a]pyrazin-5-yl}ethyl)propanamide]: the viability at 48 h, 25 µM was found to be 98.4%.

For the compound `CC(C)CN(C(=O)CCl)C1CC1` [5-D14, 2-chloro-N-cyclopropyl-N-(2-methylpropyl)acetamide], the viability at 48 h, 25 µM turned out to be 1.19%.

Regarding `CN(Cc1cc(-c2ccccc2)[nH]n1)C(=O)CCl` [5-D15, 2-chloro-N-methyl-N-[(5-phenyl-1H-pyrazol-3-yl)methyl]acetamide], the viability at 48 h, 25 µM turned out to be 0.109%.

Turning to `CN(CCOc1ccc(Cl)cc1)C(=O)CCl` [5-D16, 2-chloro-N-[2-(4-chlorophenoxy)ethyl]-N-methylacetamide], the viability at 48 h, 25 µM turned out to be 0.377%.

Consider `COc1ccc2c(c1)CCCN(C(=O)C(C)Cl)C2` (centres unmarked) [5-D17, 2-chloro-1-(7-methoxy-2,3,4,5-tetrahydro-1H-2-benzazepin-2-yl)propan-1-one], for which the viability at 48 h, 25 µM was found to be 90.9%.

On to `O=C(CCl)Nc1nc(-c2cccs2)cs1` [5-D18, 2-chloro-N-[4-(thiophen-2-yl)-1,3-thiazol-2-yl]acetamide], for which the viability at 48 h, 25 µM was determined as 0.312%.

Take `CC(Cl)C(=O)Nc1ccc(C2CC(=O)NC(=O)N2)cc1` (centres unmarked) [5-D19, 2-chloro-N-[4-(2,6-dioxo-1,3-diazinan-4-yl)phenyl]propanamide]: the viability at 48 h, 25 µM came to 92.5%.

As to `N#CCCN(Cc1ccco1)C(=O)CCl` [5-D20, 2-chloro-N-(2-cyanoethyl)-N-[(furan-2-yl)methyl]acetamide], the viability at 48 h, 25 µM amounted to 1.25%.

Take `Cc1ccc2nc(-c3ccc(F)cc3)c(CNC(=O)C(C)Cl)n2c1` (centres unmarked) [5-D21, 2-chloro-N-{[2-(4-fluorophenyl)-6-methylimidazo[1,2-a]pyridin-3-yl]methyl}propanamide]: the viability at 48 h, 25 µM was 113%.
